Results on 35 compounds are retold here after patent US20200291018A1, “TAM KINASE INHIBITORS” (SYROS PHARMACEUTICALS, INC., priority 2017, published 2020).

For orientation: IC50 means the concentration that inhibits the measured activity by half. Low values mean greater potency, high ones weaker potency.

Bounds are passed on as bounds.

One experiment deals with T1, TYRO3 (Homo sapiens, UniProt Q06418).
T1 sequence (Q06418 41-890): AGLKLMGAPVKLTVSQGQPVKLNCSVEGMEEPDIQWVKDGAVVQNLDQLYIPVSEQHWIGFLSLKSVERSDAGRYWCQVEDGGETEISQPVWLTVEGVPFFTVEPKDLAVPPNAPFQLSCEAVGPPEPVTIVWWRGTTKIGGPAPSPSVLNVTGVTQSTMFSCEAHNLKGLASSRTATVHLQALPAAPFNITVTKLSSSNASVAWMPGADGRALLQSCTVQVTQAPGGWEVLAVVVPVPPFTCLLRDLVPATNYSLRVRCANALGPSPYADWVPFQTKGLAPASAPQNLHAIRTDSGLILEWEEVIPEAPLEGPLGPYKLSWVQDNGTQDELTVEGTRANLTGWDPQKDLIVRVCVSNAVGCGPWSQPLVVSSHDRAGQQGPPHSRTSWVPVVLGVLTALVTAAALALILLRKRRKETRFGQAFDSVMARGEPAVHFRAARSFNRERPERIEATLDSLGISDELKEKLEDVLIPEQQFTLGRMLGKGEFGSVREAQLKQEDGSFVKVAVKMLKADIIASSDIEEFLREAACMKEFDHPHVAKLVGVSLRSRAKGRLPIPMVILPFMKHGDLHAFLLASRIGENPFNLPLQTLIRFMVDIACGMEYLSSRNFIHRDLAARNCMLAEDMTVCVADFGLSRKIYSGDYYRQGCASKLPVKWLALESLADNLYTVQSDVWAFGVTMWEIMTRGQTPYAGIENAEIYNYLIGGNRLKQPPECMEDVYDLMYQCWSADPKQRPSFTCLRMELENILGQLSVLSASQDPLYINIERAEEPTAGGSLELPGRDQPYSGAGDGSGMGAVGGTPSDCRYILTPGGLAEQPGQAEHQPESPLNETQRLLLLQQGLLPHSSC
As to the kind of experiment: TR-FRET kinase activity assay, TYRO3. It is filed as biochemical. As to conditions: ATP at Km, 60 minutes. In short, it runs like this: (§1)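 Enzyme, fluorescent-labeled peptide substrate and compound were mixed, then ATP was added at each enzyme's Km. Buffer was 50 mM HEPES pH 7.5, 10 mM MgCl2, 1 mM EGTA, 0.01% Brij 35, 1 mM DTT at RT. After 60 min, EDTA quench and 30 min with Eu-anti-phosphotyrosine-site antibody; TR-FRET read gave IC50.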

The target in a further experiment is T2, AXL (Homo sapiens, UniProt P30530).
T2 sequence (P30530 26-894): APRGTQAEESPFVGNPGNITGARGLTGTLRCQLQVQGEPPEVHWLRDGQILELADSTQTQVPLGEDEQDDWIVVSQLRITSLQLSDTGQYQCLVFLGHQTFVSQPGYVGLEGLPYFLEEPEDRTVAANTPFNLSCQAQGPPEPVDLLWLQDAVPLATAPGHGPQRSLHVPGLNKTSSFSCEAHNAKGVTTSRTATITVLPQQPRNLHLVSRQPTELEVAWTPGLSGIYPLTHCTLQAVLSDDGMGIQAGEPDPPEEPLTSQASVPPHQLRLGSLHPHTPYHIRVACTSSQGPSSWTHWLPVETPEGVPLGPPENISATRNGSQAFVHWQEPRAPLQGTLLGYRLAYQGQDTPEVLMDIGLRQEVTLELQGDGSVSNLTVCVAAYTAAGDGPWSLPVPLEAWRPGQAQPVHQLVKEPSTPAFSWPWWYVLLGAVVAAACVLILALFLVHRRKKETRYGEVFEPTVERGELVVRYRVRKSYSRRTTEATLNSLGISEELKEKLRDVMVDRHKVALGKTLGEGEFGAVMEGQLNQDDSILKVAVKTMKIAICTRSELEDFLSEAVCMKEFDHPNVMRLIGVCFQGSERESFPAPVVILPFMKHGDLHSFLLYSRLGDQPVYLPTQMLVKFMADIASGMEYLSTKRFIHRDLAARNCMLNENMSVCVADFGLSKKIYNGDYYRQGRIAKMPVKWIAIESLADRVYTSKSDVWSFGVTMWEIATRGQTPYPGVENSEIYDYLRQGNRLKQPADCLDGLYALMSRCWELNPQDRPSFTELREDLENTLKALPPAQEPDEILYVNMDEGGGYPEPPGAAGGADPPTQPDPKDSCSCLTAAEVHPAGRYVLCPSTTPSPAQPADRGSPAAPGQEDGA
As to the kind of experiment: TR-FRET kinase activity assay, AXL. The settings on record: ATP at Km, 60 minutes. It is filed as biochemical. In short, it runs like this: as §1
(In TR-FRET formats the signal depends on donor and acceptor labels being close together.)

`CCC(CC)Nc1ncc2c(=O)n(C3CCNCC3)cc([C@H]3CC[C@H](O)CC3)c2n1` [Compound 120]: the IC50 on TYRO3 is not above 0.1 µM; at AXL it was 1 to 10 µM.
As to `COC[C@H](C)Nc1ncc2c(OC3CCOCC3)ncc([C@H]3CC[C@H](O)CC3)c2n1` [Compound 122, (1S,4r)-4-(2-(((S)-1-methoxypropan-2-yl)amino)-5-((tetrahydro-2H-pyran-4-yl)oxy)pyrido[4,3-d]pyrimidin-8-yl)cyclohexan-1-ol], the IC50 at TYRO3 and at AXL was 0.1 to 1 µM each time.
Turning to `CCCCNc1ncc2c(NC3CCOCC3)ncc([C@H]3CC[C@H](O)CC3)c2n1` [Compound 124], the IC50 on TYRO3 and on AXL was not above 0.1 µM each time.
Take `CCCCNc1ncc2c(OCCOC)ncc([C@H]3CC[C@H](O)CC3)c2n1` [Compound 125]: the IC50 against TYRO3 was in the range of 1 to 10 µM; against AXL it was 0.1 to 1 µM.
`CCC[C@H](C)Nc1ncc2c(=O)n(C3CCNCC3)cc([C@H]3CC[C@H](O)CC3)c2n1` [Compound 126]: the IC50 is not above 0.1 µM on TYRO3 and 0.1 to 1 µM on AXL.
As to `COCCN1C(C)(C)CC(Oc2ncc([C@H]3CC[C@H](O)CC3)c3nc(N[C@@H](C)CC(F)(F)F)ncc23)CC1(C)C` [Compound 355], the IC50 against TYRO3 and against AXL was not above 0.1 µM in each case.
As to `Cc1ncc([C@H]2CC[C@H](O)CC2)c2nc(N[C@@H](C)CC(F)(F)F)ncc12` [Compound 356], the IC50 is not above 0.1 µM on TYRO3 and 0.1 to 1 µM on AXL.
With `COC[C@H](C)Nc1ncc2c(O[C@H]3CCOC3)ncc([C@H]3CC[C@H](O)CC3)c2n1` [Compound 357], the concentration for half-maximal inhibition (IC50) lay in the range of 0.1 to 1 µM against TYRO3 and 1 to 10 µM against AXL.
Regarding `COC[C@H](C)Nc1ncc2c(OC3CCOCC3)ncc(C3CCC(F)(F)CC3)c2n1` [Compound 358], the IC50 lay within 0.1 to 1 µM against TYRO3 and 1 to 10 µM against AXL.
With `CCOc1ncc([C@H]2CC[C@H](O)CC2)c2nc(N[C@@H](C)CC(F)(F)F)ncc12` [Compound 359], the figures for the IC50 against TYRO3 and on AXL were not above 0.1 µM and 0.1 to 1 µM, respectively.
As for `C[C@@H](CC(F)(F)F)Nc1ncc2c(O[C@H]3C[C@@H](O)C3)ncc([C@H]3CC[C@H](O)CC3)c2n1` [Compound 360], the IC50 against TYRO3 is not above 0.1 µM; at AXL it was 0.1 to 1 µM.
For `COC[C@H](C)Nc1ncc2c(OC3CC(C)(C)N(C(C)=O)C(C)(C)C3)ncc([C@H]3CC[C@H](O)CC3)c2n1` [Compound 361], the values for the IC50 against TYRO3 and against AXL were 0.1 to 1 µM and 1 to 10 µM, respectively.
As for `COC[C@H](C)Nc1ncc2c(Nc3ccncc3)ncc([C@H]3CC[C@H](O)CC3)c2n1` [Compound 362], the IC50 at TYRO3 was 0.1 to 1 µM; at AXL, 1 to 10 µM.
Taken in the same sequence, the figures for `COC[C@H](C)Nc1ncc2c(Nc3cccnc3)ncc([C@H]3CC[C@H](O)CC3)c2n1` [Compound 363] were not above 0.1 µM and 1 to 10 µM.
In the case of `C[C@@H](CC(F)(F)F)Nc1ncc2c(O[C@H]3C[C@H](O)C3)ncc([C@H]3CC[C@H](O)CC3)c2n1` [Compound 364], the IC50 at TYRO3 is not above 0.1 µM; at AXL it was 0.1 to 1 µM.
For the compound `C[C@H](Nc1ncc2c(OC3CCOCC3)ncc([C@H]3CC[C@H](O)CC3)c2n1)C(F)F` [Compound 365], the IC50 against TYRO3 is not above 0.1 µM; against AXL it was 0.1 to 1 µM.
`COC[C@H](C)Nc1ncc2c(O[C@@H]3CCN(C)C3)ncc([C@H]3CC[C@H](O)CC3)c2n1` [Compound 366]: the values for the IC50 against TYRO3 and against AXL were 0.1 to 1 µM and 1 to 10 µM, respectively.
For the compound `CC[C@@H](C)Nc1ncc2c(OC3CC(C)(C)N(C)C(C)(C)C3)ncc([C@H]3CC[C@H](O)CC3)c2n1` [Compound 367], the IC50 on TYRO3 and against AXL was not above 0.1 µM each time.
Turning to `COC[C@H](C)Nc1ncc2c(O[C@H]3CCN(C)C3)ncc([C@H]3CC[C@H](O)CC3)c2n1` [Compound 368], the IC50 is not above 0.1 µM against TYRO3 and 1 to 10 µM at AXL.
Regarding `COCCN1CCC(Oc2ncc([C@H]3CC[C@H](O)CC3)c3nc(N[C@@H](C)CC(F)(F)F)ncc23)CC1` [Compound 369], the IC50 against TYRO3 is not above 0.1 µM; against AXL it was 0.1 to 1 µM.
For `C[C@@H](CC(F)(F)F)Nc1ncc2c(OC3C[C@H]4CC[C@@H](C3)N4C)ncc([C@H]3CC[C@H](O)CC3)c2n1` (stereo partly shown) [Compound 370], the IC50 on TYRO3 and against AXL was not above 0.1 µM in each case.
As for `COC[C@H](C)Nc1ncc2c(OC3C[C@@H](C)N(C)[C@@H](C)C3)ncc([C@H]3CC[C@H](O)CC3)c2n1` (stereo partly shown) [Compound 371], the IC50 against TYRO3 was not above 0.1 µM; on AXL, 0.1 to 1 µM.
Turning to `COC[C@H](C)Nc1ncc2c(Nc3ccnc(C)c3)ncc([C@H]3CC[C@H](O)CC3)c2n1` [Compound 372], the IC50 at TYRO3 lay within 0.1 to 1 µM; against AXL it was 1 to 10 µM.
As to `C[C@@H](CC(F)(F)F)Nc1ncc2c(OC3CCN(c4ncccn4)CC3)ncc([C@H]3CC[C@H](O)CC3)c2n1` [Compound 373], the concentration for half-maximal inhibition (IC50) against TYRO3 was not above 0.1 µM; at AXL, 0.1 to 1 µM.
For the compound `COC[C@H](C)Nc1ncc2c(Nc3ccc(C)nc3)ncc([C@H]3CC[C@H](O)CC3)c2n1` [Compound 374], the IC50 against TYRO3 was not above 0.1 µM; against AXL, 1 to 10 µM.
Taken in the same sequence, the figures for `Cc1nccc(N2CCC(Oc3ncc([C@H]4CC[C@H](O)CC4)c4nc(N[C@@H](C)CC(F)(F)F)ncc34)CC2)n1` [Compound 375] were not above 0.1 µM and 0.1 to 1 µM.
For the compound `COCCN1C(C)(C)CC(Oc2ncc([C@H]3CC[C@H](O)CC3)c3nc(N[C@@H](C)CC#N)ncc23)CC1(C)C` [Compound 376], the IC50 against TYRO3 is not above 0.1 µM; against AXL it was 0.1 to 1 µM.
As for `COCC(=O)N1C(C)(C)CC(Oc2ncc([C@H]3CC[C@H](O)CC3)c3nc(N[C@@H](C)CC(F)(F)F)ncc23)CC1(C)C` [Compound 377], the IC50 was 0.1 to 1 µM at TYRO3 and 1 to 10 µM against AXL.
Turning to `C[C@@H](CC(F)(F)F)Nc1ncc2c(OC3CCN([C@@H]4CCOC4)CC3)ncc([C@H]3CC[C@H](O)CC3)c2n1` [Compound 378], the IC50 was not above 0.1 µM at TYRO3 and 0.1 to 1 µM on AXL.
Take `COCCN1C(C)(C)CC(Oc2ncc([C@H]3CC[C@H](O)CC3)c3nc(NC4(C)CC4)ncc23)CC1(C)C` [Compound 379]: the IC50 against TYRO3 and against AXL was not above 0.1 µM each time.
With `COCCN1C(C)(C)CC(Oc2ncc([C@H]3CC[C@H](O)CC3)c3nc(N[C@@H](C)CCO)ncc23)CC1(C)C` [Compound 380], the IC50 at TYRO3 is not above 0.1 µM; against AXL, 0.1 to 1 µM.
Consider `COCCN1C(C)(C)CC(Oc2ncc([C@H]3CC[C@H](O)CC3)c3nc(N[C@@H](C)CF)ncc23)CC1(C)C` [Compound 381], for which the IC50 on TYRO3 and against AXL was not above 0.1 µM each time.
As to `C[C@@H](CF)Nc1ncc2c(OC3CC(C)(C)N(C)C(C)(C)C3)ncc([C@H]3CC[C@H](O)CC3)c2n1` [Compound 382], the IC50 at TYRO3 was not above 0.1 µM; at AXL, 0.1 to 1 µM.
In the case of `C[C@@H](CC(F)(F)F)Nc1ncc2c(OC3CCN([C@H]4CCOC4)CC3)ncc([C@H]3CC[C@H](O)CC3)c2n1` [Compound 383], the results for the IC50 at TYRO3 and on AXL were not above 0.1 µM and 0.1 to 1 µM, respectively.
`COC[C@H](C)Nc1ncc2c(O[C@H]3CCN(C)C(C)(C)C3)ncc([C@H]3CC[C@H](O)CC3)c2n1` [Compound 384]: the IC50 against TYRO3 was not above 0.1 µM; against AXL, 0.1 to 1 µM.
